We go through one compound from patent US5900434A, “Method for inhibiting the production of interleukin-1 or tumor necrosis factor-α by administering acanthoic acid” (Korea Institute of Science and Technology, priority 1994, dated 1999).

Data set [1] relates to collagen in rat pulmonary tissue. The data set is described as follows: Inhibition of collagen synthesis in rat pulmonary tissues (hydroxyproline). It counts as in vivo. The following applies: rat pulmonary tissue treated with silica, DMSO and acanthoic acid; normal = 100%; FIG. 8. The method, then: IL-1 and TNF-α are known as cytokines which cause fibrosis and induce collagen synthesis in rat fibroblast(Kang, H. S., et al., Korean. J. Immunol., 14, 193(1992)). For the purpose of confirming the ability of acanthoic acid to suppress the action of IL-1 and TNF-α, its inhibitory effect on the collagen synthesis in rat pulmonary fibroblast and pulmonary tissues was determined. The amount of produced collagen in the culture of rat pulmonary fibroblast was measured by an indirect ELISA method, and that of pulmonary tissue was determined by measuring the concentration of hydroxyproline and calculating the amount of collagen therefrom by using the standard curve of internal control group. Further, for the purpose of determining the amount of synthesized collagen in rat pulmonary tissues, the amount of hydroxyproline was measured as follows. 0.1 to 0.2 g of the rat pulmonary tissue was mixed with 1 ml of PBS and then crushed in a Pyrex tube(Corning, Rochester, N.Y., U.S.A.). […] The resultant was freezed in a freezer, lyophilized in a freeze-dryer(Labconco) and dissolved completely in 1 ml of distilled water. 50 μl of the resulting solution was diluted with 50 μl of distilled water in a microcentrifuge tube. […] O.D. of the sample was measured at 650 nm, and the amount of hydroxyproline in the sample was calculated by employing the standard curve of internal control group.

For data set [2], the system named is TNF-α production in rat alveolar macrophages and lymphocytes. Description: Inhibition of TNF-α production in rat alveolar macrophages and lymphocytes. It counts as cell-based. The following applies: 10 μg/ml; 100 μg/ml silica, 3 days; FIG. 4. On the procedure:
TNF-α dependent L929 fibroblasts(ATCC CCLl) were suspended in RPMI 1640 medium containing 5% FBS and added to the wells of 96-well incubation plate in an amount of 3×10^4 cells/well. The plate was incubated at 37° C. for 2 hours to make the cells adhere to the incubation plate. Then, the medium was removed and 1 μg/ml of actinomycin D(Sigma) and 50 μl of culture dialyzate of monocytes and macrophages obtained in Example 1 were added to each of the wells. The final concentration of FBS in each well was adjusted to 5% and the cells were incubated at 37° C. under 5% CO2 for 24 hours.
When the incubation was completed, the medium was removed and the cells were washed twice with PBS and stained for 5 minutes with 0.5% crystal violet solution in 20% methanol. The cells were washed three times with PBS and dried. Then, 100 μl of 33% acetic acid was added to each of the wells to release the dye, and then the O.D. of sample obtained from each of the wells was determined by using ELISA reader with 570 nm reading filter and 405 nm reference filter. The amount of released dye was calculated from the O.D. value with reference to that of the internal control group, i.e., rHu TNF-α(Genzyme). […]

Data set [3] has as its system human monocytes and macrophages. Description: Cytotoxicity on human monocytes and macrophages (MTT). It counts as cell-based. The following applies: concentration lower than 10 μg/ml. The method, then: Normal human peripheral blood was heparin-treated and diluted with equal amount of Hank's balanced salt solution (HBSS: Ca^2+ and Mg^2+ free). The diluted blood was put into a centrifuge tube containing therein Ficoll-Hypaque(Sigma, St. Louis, Mo., U.S.A.) layer having a density of 1.077 piled up on Ficoll-Hypaque layer having a density of 1.119, and then centrifuged at 700×g for 30 minutes to obtain monocytes from the layer between Ficoll-Hypaque layer having a density of 1.077 and serum layer, and neutrophils from the layer between Ficoll-Hypaque layer having a density of 1.077 and that having a density of 1.119. The separated cells were washed twice with 4° C. HBSS(Ca^2+ and Mg^2+ free) and suspended in RPMI 1640 medium(Gibco, Grand Island, N.Y., U.S.A.) containing 10% fetal bovine serum(FBS, Hyclone, Logan, Utah, U.S.A.). The suspensions were added to the wells of 24-well incubation plate(Costar, Cambridge, Mass., U.S.A.) and incubated at 37° C. for 2 hours to obtain monocytes, macrophages and neutrophils. […] The cytotoxicity of acanthoic acid was determined by the following procedures. […] 100 μl each of acidified isopropanol(0.04N HCl in isopropanol) was added to the cells in each well to elute formazan produced by the living cells, and optical density (O.D.) was determined at 540 nm by using an ELISA reader (Titertek multiskan Mcc/340)(FIG. 1). […]

The structures appear in SMILES notation.

Regarding `C=C[C@@]1(C)CC=C2C(CCC3[C@](C)(C(=O)O)CCC[C@@]23C)C1` (single isomer, unassigned; (-)) [acanthoic acid, (-)-pimara-9(11),15-diene-19-oic acid], in data set [1], the “decrease of amount of synthesized collagen” value was “about 50%”. Further, the “inhibition of production of TNF-α” value in data set [2] was “inhibited”. Moreover, the cytotoxicity entry in data set [3] is given as “no cytotoxicity”.
